From patent publication US20150266857A1, “NOVEL 3-INDOL SUBSTITUTED DERIVATIVES, PHARMACEUTICAL COMPOSITIONS AND METHODS FOR USE” (iTeos Therapeutics, priority 2014, published 2015)

These compounds were tested against T1, human glioblastoma A172 cells, naturally expressing hTDO2 (Homo sapiens, UniProt P48775) (assay: Cellular assay for TDO2 activity, A172 cells). Settings: overnight incubation, kynurenine in supernatant.
T1 construct: human glioblastoma A172 cells, naturally expressing hTDO2; endogenous in cells; host or cells: human glioblastoma A172 cells (ATCC CRL-1620)
T1 sequence (P48775 whole entry): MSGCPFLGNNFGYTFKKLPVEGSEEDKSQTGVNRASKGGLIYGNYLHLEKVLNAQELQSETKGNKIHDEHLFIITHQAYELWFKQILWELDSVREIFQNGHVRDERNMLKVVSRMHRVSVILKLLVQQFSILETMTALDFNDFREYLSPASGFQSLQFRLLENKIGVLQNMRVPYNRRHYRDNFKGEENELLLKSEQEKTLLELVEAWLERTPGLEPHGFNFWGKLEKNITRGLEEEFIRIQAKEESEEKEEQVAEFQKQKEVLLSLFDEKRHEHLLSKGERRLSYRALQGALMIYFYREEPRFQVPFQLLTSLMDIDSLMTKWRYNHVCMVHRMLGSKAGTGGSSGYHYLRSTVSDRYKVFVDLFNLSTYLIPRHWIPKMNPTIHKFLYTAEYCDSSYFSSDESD
Format: cell-based
Experimental: The compounds of formula I inhibit the activity of human TDO2 in cells that constitutively express TDO2, such as A172 cells. A172 is a cell line derived from human brain glioblastoma cells. The cells are available from the American Type Culture Collection (ATCC®) as CRL-1620™
The assay (adapted from Pilotte L et al., Proc Natl Acad Sci USA, 2012, 109(7), 2497-502) was performed in 96-well flat bottom plates seeded with human glioblastoma A172 cells, naturally expressing hTDO2 (prepared as described in Tilman et al., Mol Cancer, 2007, 17(6), 80), at a concentration of 1.25×10^4 cells/well in a final volume of 200 μL. To determine TDO, the cells were incubated overnight at 37° C. at 5% CO2 in IMDM (Invitrogen) supplemented with 2% FBS and 2% penicillin/streptomycin in the presence of the compounds of the present invention, at different concentrations.
The plates were then centrifuged 5 min at 1000 rpm, and 100 μL of the supernatant were collected in a conical plate, 30 uL of TCA 30% were added and a further centrifugated at 3000×g for 10 minutes. 100 μL of the supernatant were collected in a flat bottomed plate and 100 μL of 2% (w/v) 4-(dimethylamino)-benzaldehyde in acetic acid and incubated for 5 min at room temperature. Kynurenine concentrations were determined by measuring the absorbance at 480 nm. A standard curve was made with pure kynurenine. The TDO activity was measured as described above using ten serial concentrations of the compounds of the present invention. Data were fitted using the Prism™ software (GraphPad Software, Inc.) using standard parameters.
`Clc1ccc2[nH]cc(-c3ccc4ocnc4c3)c2c1` [Compound 121, 5-(5-chloro-1H-indol-3-yl)benzo[d]oxazole] was tested, and the IC50 was 1.77 µM.
`CN1CCC(Cc2nc3ccc(-c4c[nH]c5cc(F)ccc45)cc3o2)CC1` [Compound 125, 6-(6-fluoro-1H-indol-3-yl)-2-((1-methylpiperidin-4-yl)methyl)benzo[d]oxazole] gave an IC50 of 0.148 µM.
Work on `CS(=O)(=O)NC1CCN(CCS(=O)(=O)NCc2nc3ccc(-c4c[nH]c5cc(F)ccc45)cc3o2)CC1` [Compound 126, N-((6-(6-fluoro-1H-indol-3-yl)benzo[d]oxazol-2-yl)methyl)-2-(4-(methylsulfonamido)piperidin-1-yl)ethanesulfonamide] yielded an IC50 of 0.826 µM.
`CS(=O)(=O)NCc1nc2ccc(-c3c[nH]c4cc(Cl)ccc34)cc2o1` [Compound 127, N-((6-(6-chloro-1H-indol-3-yl)benzo[d]oxazol-2-yl)methyl)methanesulfonamide] was tested, and the IC50 was 3.78 µM.
Compound `O=C1NC(=O)C(Cc2nc3ccc(-c4c[nH]c5cc(F)ccc45)cc3o2)N1` (stereo not drawn) [Compound 129, 5-((6-(6-fluoro-1H-indol-3-yl)benzo[d]oxazol-2-yl)methyl)imidazolidine-2,4-dione] has an IC50 of 0.225 µM.
With `NC(=O)Cn1c(=O)oc2cc(-c3c[nH]c4ccc(F)cc34)ccc21` [Compound 131, 2-(6-(5-fluoro-1H-indol-3-yl)-2-oxobenzo[d]oxazol-3(2H)-yl)acetamide] the IC50 was 2.38 µM.
`O=C1NC(=O)c2cc(-c3c[nH]c4cc(F)ccc34)ccc21` [Compound 132, 5-(6-fluoro-1H-indol-3-yl)isoindoline-1,3-dione] was tested, and the IC50 was 0.197 µM.
`Fc1ccc2c(-c3ccc4c(c3)CNC4)c[nH]c2c1` [Compound 133, 6-fluoro-3-(isoindolin-5-yl)-1H-indole] gave an IC50 of 0.292 µM.
Compound `O=S1(=O)NCc2ccc(-c3c[nH]c4cc(F)ccc34)cc21` [Compound 134] has an IC50 of 0.771 µM.
Compound `O=S1(=O)NCc2cc(-c3c[nH]c4cc(F)ccc34)ccc21` [Compound 135, 5-(6-fluoro-1H-indol-3-yl)-2,3-dihydrobenzo[d]isothiazole 1,1-dioxide] has an IC50 of 0.074 µM.
`O=c1oc2cc(-c3c[nH]c4cc(F)ccc34)ccc2n1C1CCNCC1` [Compound 136, 6-(6-fluoro-1H-indol-3-yl)-3-(piperidin-4-yl)benzo[d]oxazol-2(3H)-one] was tested, and the IC50 was 0.32 µM.
Work on `Cc1nc2cc(CO)c(-c3c[nH]c4cc(F)ccc34)cc2o1` [Compound 137, (6-(6-fluoro-1H-indol-3-yl)-2-methylbenzo[d]oxazol-5-yl)methanol] yielded an IC50 of 30.7 µM.
`CN1C(=O)c2cc(-c3c[nH]c4cc(F)ccc34)ccc2S1(=O)=O` [Compound 138, 5-(6-fluoro-H-indol-3-yl)-2-methylbenzo[d]isothiazol-3(2H)-one 1,1-dioxide] gave an IC50 of 3.68 µM.
Work on `C[C@@H]1CN(CCc2nc3ccc(-c4c[nH]c5cc(F)ccc45)cc3o2)C[C@H](C)N1` [Compound 139, 2-(2-(cis-3,5-dimethylpiperazin-1-yl)ethyl)-6-(6-fluoro-1H-indol-3-yl)benzo[d]oxazole] yielded an IC50 of 0.383 µM.
`OC1CCN(CCc2nc3ccc(-c4c[nH]c5cc(F)ccc45)cc3o2)CC1` [Compound 140, 1-(2-(6-(6-fluoro-1H-indol-3-yl)benzo[d]oxazol-2-yl)ethyl)piperidin-4-ol] gave an IC50 of 0.447 µM.
`C[C@@H]1CN(CCc2nc3ccc(-c4c[nH]c5cc(F)ccc45)cc3o2)C[C@@H](C)N1` [Compound 142, (+)-2-(2-((3R,5R)-3,5-dimethylpiperazin-1-yl)ethyl)-6-(6-fluoro-1H-indol-3-yl)benzo[d]oxazole] was tested, and the IC50 was 0.48 µM.
For `Fc1ccc2c(-c3ccc4nc(CCN5CC6(CNC6)C5)oc4c3)c[nH]c2c1` [Compound 143, 2-(2-(2,6-diazaspiro[3.3]heptan-2-yl)ethyl)-6-(6-fluoro-1H-indol-3-yl)benzo[d]oxazole], the IC50 was 0.61 µM.
In the case of `C[C@H]1CN(CCc2nc3ccc(-c4c[nH]c5cc(F)ccc45)cc3o2)C[C@H](C)N1` [Compound 144, (−)-2-(2-((3S,5S)-3,5-dimethylpiperazin-1-yl)ethyl)-6-(6-fluoro-1H-indol-3-yl)benzo[d]oxazole], the IC50 is reported as 0.46 µM.
